Laboratory results taken from patent US9017963B2, “Method for detecting microorganisms” (Woundchek Laboratories (US), Inc., priority 2002, dated 2015).
*: point of attachment. Dabsyl = label, CN(C)c1ccc(/N=N/c2ccc(S(=O)(=O)*)cc2)cc1; EDANS = O=S(=O)(O)c1cccc2c(NCCN*)cccc12

Tests used:
[1] = system: lipase from S. aureus; assay: Lipase assay, S. aureus culture supernatant; assay type: biochemical, Staphylococcus aureus; details: 20 mM Tris (pH 8.3) with 1 mM ZnSO4, 20% methanol, 20% DMSO, or 10 mM Triton X-100 vs control
Method: (§1) A culture of each of the following bacterial species was grown to saturation in Brain Heart Infusion (BHI) broth at 37° C. with vigorous shaking (˜200 rpm), using methods that are standard in the art: Staphylococcus aureus; Staphylococcus epidermidis; Serratia marcescens; Streptococcus salivarius; Escherichia coli; Pseudomonas aeruginosa; and Enterococcus faecalis. After overnight growth (to saturation), a 1 mL sample of each culture was obtained, and the cells were removed from the culture supernatant by centrifugation at 12,000×g for 5 minutes. The remaining culture supernatants were stored on ice until required (less than one hour). The bacteria were assayed for the presence or absence of specific enzymes as described below. Alternatively, the bacterial cells are not separated from the culture supernatant, but rather, the assay is carried out on a sample containing the cells still in suspension in their culture broth.
To test for the presence or absence of lipases secreted by bacteria, the lipase substrate p-nitrophenyl caprate, obtained from Sigma (Catalog No.: N-0252). This lipase substrate consists of capric acid, a ten-carbon lipid molecule, esterified with the dye para nitrophenol (detectable label) as described above. The substrate was dissolved in isopropyl alcohol at a concentration of 8 mM (2.35 mg/mL). A reaction buffer containing 20 mM Tris (pH 8.5) was also prepared.
To perform the lipase assay, 80 μL of reaction buffer, 10 μL of culture supernatant from each bacteria species described in Example 2, and 10 μL of assay substrate were added to a well of a 96-well microplate. Each bacterial species was assayed individually, and the assays were performed in triplicate. The 96-well plate was incubated at 37° C. for 60 minutes. At 5 minute intervals during the incubation period, absorbance at 415 nm, indicating modification of the enzyme by a lipase secreted by the cells, was automatically measured using a BioRad Benchmark Microplate reader.
However, it is known that bacterial lipases do show strong substrate specificity with regard to the chain length of the fatty acid they hydrolyze (Van Kampen et al., BBA, 1544: 229, 2001) and to the location in a lipid layer. The degree that the environment of the substrate affects the efficiency of hydrolysis depends on the particular enzyme. To test this for the lipase from S. aureus, the above-described lipase assay was performed in the presence of several detergent and solvent additives. The reaction buffer consisted of 20 mM Tris (pH 8.3) with 1 mM ZnSO4 added, plus either nothing additional (control), 20% methanol, 20% DMSO, or 10 mM Triton X-100.

[2] = system: S. epidermidis; assay: Indolyl ester glass microfiber filter sensor, S. epidermidis; assay type: biochemical, Staphylococcus epidermidis; details: substrates bound to glass microfiber filter; FIG. 17B
Text: Hydrophobic interactions make use of the non-ionic packing that occurs in a polar solvent such as water and such interactions can be used in the production of biosensors for detection of pathogens. The substrates 5-bromo-4-chloro-3indolyl butyrate and 5-bromo-4-chloro-3indolyl caprylate can be spotted onto a glass microfiber filter to make a sensor. Upon spotting the filter with a small amount of Staphylococcus (aureus or epidermidis) culture medium the color of the filter will turn blue in approximately 15 minutes.

[3] = system: S. pyogenes; assay: Indolyl ester glass microfiber filter sensor, S. pyogenes; assay type: biochemical, Streptococcus pyogenes; details: substrates bound to glass microfiber filter; FIG. 17B
[4] = system: beta-galactosidase (Streptococcus salivarius); assay: Beta-galactosidase assay, S. salivarius supernatant; assay type: biochemical; details: 37° C.
Method: as §1
(§2) To determine the presence or absence of bacteria in a sample, mid-log phase bacterial supernatants were obtained as described in Example 2. A substrate solution containing the labeled synthetic substrate ortho-nitrophenyl-b-D-galactopyranoside (ONPG) dissolved in 50% DMSO to a concentration of 20 mM was prepared. […] The samples were incubated at 37° C. and absorbance at 420 nm was measured hourly.

[5] = system: beta-galactosidase (other bacterial supernatants of Example 2); assay: Beta-galactosidase assay, other species; assay type: biochemical; details: 37° C.
Method: as §1, §2

[6] = system: Serratia marcescens specific protease; assay: Serratia protease FRET assay, S. marcescens culture; assay type: biochemical
Text: A Serratia marcescens specific protease was identified based on a homology search using the sequence of a known sspB protease found in the Staphylococcus species. This protease has homology to the cysteine protease precursor (sspB) protein of Staphylococcus aureus. The corresponding Serratia protease has not been previously characterized. To test for the presence of the specific protease in a bacterial culture, a short target peptide was designed. This target peptide was derived from a polypeptide substrate previously shown to be cleaved by S. aureus sspB (Chan and Foster, J. Bacteriology 180:6232-6241, 1998). This peptide was capped by a fluorescent dye molecule on one end and by an associated chromophore molecule on the other end. If the absorption band of the chromophore has sufficient overlap with the absorbance band associated with the fluorescence of the dye molecule, the observed fluorescence will be quenched. This phenomenon is known as fluorescence resonance energy transfer (FRET) and can be used to determine the distance between the FRET donor and acceptor molecules. Upon cleavage of the peptide the fluorescent indicator is released from the proximity of the quencher and the fluorescence increase is measured. Thus, the presence or absence of a protease that targets the peptide in the sample can be determined by detecting fluorescence emitted by the cleaved peptide. […]

[7] = system: Staphylococcus aureus, Listeria monocytogenes, Pseudomonas aeruginosa, Enterococcus faecalis, Streptococcus salivarius, Escherichia coli cultures; assay: Serratia protease FRET assay, other bacterial pathogen samples; assay type: biochemical; details: other bacterial samples vs water control; same conditions
Method: The specificity of the protease for Serratia marcescens is was determined by detecting cleavage of a target polypeptide, using FRET, by the protease in a number of different bacterial pathogen samples. The bacterial pathogen samples used in this study were all taken from overnight cultures grown in brain heart […] (BHI) media at 37° C., as described herein. The bacterial pathogens chosen for this study were: Staphylococcus aureus, Listeria monocytogenes, Pseudomonas aeruginosa, Enterococcus faecalis, Streptococcus salivarius, Serratia marcescens, and Escherichia coli. The target peptide substrate used to test for the Serratia marcescens specific protease was as follows: Dabsyl-NEAIQEDQVQYE-Edans (SEQ ID NO: 2), and was prepared using standard methods known to one skilled in the art. A substrate solution containing 1 mg/mL to 5 mg/mL of target peptide substrate in 1:1 water/dimethylsulfoxide (DMSO) was prepared. The reaction buffer used was 20 mM Tris (pH 7.5) with 200 mM NaCl. […] The narrow band filters in the fluorimeter were centered at 305 nm for excitation and 485 nm for fluorescence emission readings. The samples were incubated at 37° C. and the fluorescence of each sample was measured at time points taken every 10 minutes. […]

[8] = system: Serratia marcescens specific protease; assay: Biosensor: target peptide bound to Cell Debris Remover, exposed to Serratia marcescens extract; assay type: biochemical
Text: An example of a biosensor for the detection of a Serratia marcescens (S. marcescens) specific protease, and therefore, for the detection of Serratia marcescens now follows. The Serratia marcescens specific target peptide substrate was bound to a surface with a weak positive charge, such as fibrous cellulose lightly substituted with DEAE (Cell Debris Remover, Whatman, Inc.).

[9] = system: autolysins (Enterococcus faecalis); assay: Autolysin assay, E. faecalis supernatant; assay type: biochemical; details: 20° C., 7 hours
Method: as §1, with “Alternatively, the bacterial cells are not separated from the culture supernatant, but rather, the assay is carried out on a sample containing the cells still in suspension in their culture broth.” left out
(§3) To test for the presence of autolysins in bacterial cell culture supernatants, the synthetic autolysin substrate p-nitrophenyl-N-acetyl-b-D-glucosaminide (PNP-AGA), a substrate containing a dye that is detected at […] when the substrate is modified, was dissolved in 50% DMSO to a final concentration of 20 mM to form a substrate solution. Modification of this substrate can be detected by measuring the change in absorbance at 405 nm. […] The progress of modification of the labeled substrate was monitored by absorbance at 405 nm.

[10] = system: other bacterial culture supernatants of Example 2; assay: Autolysin assay, other culture supernatants; assay type: biochemical; details: other culture supernatants vs water control; 20° C., 7 hours
Method: as §1, with “Alternatively, the bacterial cells are not separated from the culture supernatant, but rather, the assay is carried out on a sample containing the cells still in suspension in their culture broth.” left out
as §3

C[S+](C)[O-] [DMSO]
effect of additive on hydrolysis rate of p-nitrophenyl caprate [1]: hydrolysis rate was found to increase

CCCC(=O)Oc1c[nH]c2ccc(Br)c(Cl)c12 [5-bromo-4-chloro-3indolyl butyrate]
detection on filter sensor (dark spot) [2]: dark spot corresponding to S. epidermidis indicates detection
detection on filter sensor [3]: did not detect S. pyogenes

O=[N+]([O-])c1ccccc1O[C@@H]1O[C@H](CO)[C@H](O)[C@H](O)[C@H]1O [ONPG, ortho-nitrophenyl-b-D-galactopyranoside]
reaction with substrate (absorbance at 420 nm) [4]: reacted with the substrate
reaction with substrate (absorbance at 420 nm) [5]: other species did not

CO [methanol]
effect of additive on hydrolysis rate of p-nitrophenyl caprate [1]: hydrolysis rate was found to increase

Dabsyl-NEAIQEDQVQYE-Edans (Dabsyl-NEAIQEDQVQYE-{EDANS}; SMILES CC[C@H](C)[C@H](NC(=O)[C@H](C)NC(=O)[C@H](CCC(=O)O)NC(=O)[C@H](CC(N)=O)NS(=O)(=O)c1ccc(/N=N/c2ccc(N(C)C)cc2)cc1)C(=O)N[C@@H](CCC(N)=O)C(=O)N[C@@H](CCC(=O)O)C(=O)N[C@@H](CC(=O)O)C(=O)N[C@@H](CCC(N)=O)C(=O)N[C@H](C(=O)N[C@@H](CCC(N)=O)C(=O)N[C@@H](Cc1ccc(O)cc1)C(=O)N[C@@H](CCC(=O)O)C(=O)NCCNc1cccc2c(S(=O)(=O)O)cccc12)C(C)C) [target peptide substrate used to test for the Serratia marcescens specific protease]
cleavage of target peptide substrate (relative fluorescence intensity over time) ([6]; S. marcescens overnight culture in BHI, 20 mM Tris (pH 7.5) with 200 mM NaCl, 37° C., emission 485 nm): reacted with the substrate, giving rise to an increase in fluorescence intensity
cleavage of target peptide substrate (relative fluorescence intensity over time) [7]: None of the other bacterial samples, including the Staphylococcus aureus sample, were distinguishable from the control
fluorescence of biosensor [8]: fluorescence was readily detected

O=C(O)CN(CCN(CC(=O)O)CC(=O)O)CC(=O)O [EDTA, ethylenediaminetetraacetic acid]
effect of EDTA on protease activity (relative fluorescence of the target peptide) ([6]; One mM EDTA added to 20 mM Tris (pH 7.5) with 200 mM NaCl, Serratia culture): No reduction in activity

Triton X-100
effect of additive on hydrolysis rate of p-nitrophenyl caprate [1]: hydrolysis rate was found to increase

CCCCCCCC(=O)Oc1c[nH]c2ccc(Br)c(Cl)c12 [5-bromo-4-chloro-3indolyl caprylate]
detection on filter sensor (dark spot) [2]: dark spot corresponding to S. epidermidis indicates detection
detection on filter sensor [3]: did not detect S. pyogenes

CC(=O)N[C@H]1[C@H](Oc2ccc([N+](=O)[O-])cc2)O[C@H](CO)[C@@H](O)[C@@H]1O [PNP-AGA, p-nitrophenyl-N-acetyl-b-D-glucosaminide]
modification of substrate (change in absorbance at 405 nm) [9]: reacted with the substrate, giving rise to a color change
modification of substrate (change in absorbance at 405 nm) [10]: None of the other culture supernatants were distinguishable from the water control
